Assay results reported in US8541418B2, “Inhibitors of polo-like kinase” (Elan Pharmaceutical, Inc., priority 2009, dated 2013).
Like-named read-outs stand apart in the source and are kept apart here.

Key:
Assay type in all cases: biochemical
PLK3 = PLK3 (Homo sapiens, UniProt Q9H4B4); test: PLK TR-FRET peptide assay, PLK3; conditions: GST-PLK3, 15 min reaction, read-out: Plk3 IC50
PLK2 = PLK2 (Homo sapiens, UniProt Q9NYY3); test: PLK TR-FRET peptide assay, PLK2; conditions: for IC50: read-out: Plk2 IC50; for relative PLK2 activity of the enantiomers: compared with the opposite enantiomer
Sequence of PLK2 (Q9NYY3 whole entry): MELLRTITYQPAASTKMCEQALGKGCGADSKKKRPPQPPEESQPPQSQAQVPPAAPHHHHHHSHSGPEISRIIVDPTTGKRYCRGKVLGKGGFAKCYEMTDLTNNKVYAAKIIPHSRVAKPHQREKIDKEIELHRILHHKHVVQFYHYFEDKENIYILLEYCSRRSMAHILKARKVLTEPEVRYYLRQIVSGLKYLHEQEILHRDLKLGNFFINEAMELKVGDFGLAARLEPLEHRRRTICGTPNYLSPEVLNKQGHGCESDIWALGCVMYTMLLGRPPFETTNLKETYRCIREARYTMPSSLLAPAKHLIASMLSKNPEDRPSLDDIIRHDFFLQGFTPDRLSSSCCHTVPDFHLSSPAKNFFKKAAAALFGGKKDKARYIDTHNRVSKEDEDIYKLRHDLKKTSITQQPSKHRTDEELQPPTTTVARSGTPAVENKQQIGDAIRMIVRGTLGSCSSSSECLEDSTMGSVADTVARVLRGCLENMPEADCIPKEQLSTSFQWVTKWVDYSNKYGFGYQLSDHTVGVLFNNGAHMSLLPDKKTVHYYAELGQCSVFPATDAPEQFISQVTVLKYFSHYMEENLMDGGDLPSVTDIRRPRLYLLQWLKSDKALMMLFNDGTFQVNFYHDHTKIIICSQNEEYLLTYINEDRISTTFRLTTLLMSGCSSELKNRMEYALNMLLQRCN

PLK1 = PLK1 (Homo sapiens, UniProt P53350); test: PLK TR-FRET peptide assay, PLK1; conditions: GST-PLK1, 60 min reaction
Sequence of PLK1 (P53350 whole entry): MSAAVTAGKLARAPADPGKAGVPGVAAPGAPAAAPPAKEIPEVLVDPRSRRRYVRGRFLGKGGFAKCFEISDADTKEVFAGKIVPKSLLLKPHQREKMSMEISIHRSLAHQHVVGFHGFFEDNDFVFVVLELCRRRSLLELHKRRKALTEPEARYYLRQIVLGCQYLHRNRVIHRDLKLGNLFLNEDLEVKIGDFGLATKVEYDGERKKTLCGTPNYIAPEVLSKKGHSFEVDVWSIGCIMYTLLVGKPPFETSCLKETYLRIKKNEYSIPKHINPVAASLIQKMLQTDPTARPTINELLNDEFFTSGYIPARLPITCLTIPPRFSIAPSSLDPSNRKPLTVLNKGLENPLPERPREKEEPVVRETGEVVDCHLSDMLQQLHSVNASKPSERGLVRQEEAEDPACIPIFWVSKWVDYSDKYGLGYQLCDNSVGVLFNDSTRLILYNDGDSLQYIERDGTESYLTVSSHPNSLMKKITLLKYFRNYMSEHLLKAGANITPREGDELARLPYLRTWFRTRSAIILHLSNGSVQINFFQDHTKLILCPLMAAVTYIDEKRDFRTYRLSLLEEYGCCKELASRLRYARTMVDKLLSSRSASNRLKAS

[1] = PLK TR-FRET peptide assay, GST-PLK2, 60 min reaction

Sequence of PLK3 (Q9H4B4 whole entry): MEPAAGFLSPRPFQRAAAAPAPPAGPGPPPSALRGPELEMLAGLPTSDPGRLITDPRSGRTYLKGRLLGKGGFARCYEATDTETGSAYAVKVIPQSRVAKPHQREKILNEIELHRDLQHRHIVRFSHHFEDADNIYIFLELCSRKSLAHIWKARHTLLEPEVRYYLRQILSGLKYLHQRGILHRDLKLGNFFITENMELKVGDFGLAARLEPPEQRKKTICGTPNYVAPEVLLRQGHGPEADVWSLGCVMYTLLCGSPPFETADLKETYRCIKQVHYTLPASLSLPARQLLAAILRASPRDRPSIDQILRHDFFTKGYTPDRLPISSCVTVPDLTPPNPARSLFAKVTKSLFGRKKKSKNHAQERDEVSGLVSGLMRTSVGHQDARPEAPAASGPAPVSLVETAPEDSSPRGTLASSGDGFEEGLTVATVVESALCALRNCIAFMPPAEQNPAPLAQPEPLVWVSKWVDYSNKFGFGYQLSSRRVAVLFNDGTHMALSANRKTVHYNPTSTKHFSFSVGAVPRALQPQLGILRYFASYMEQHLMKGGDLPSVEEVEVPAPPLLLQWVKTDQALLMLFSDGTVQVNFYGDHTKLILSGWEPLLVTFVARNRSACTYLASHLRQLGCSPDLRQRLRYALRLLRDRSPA

Structure (SMILES) | IC50 (PLK3) [µM] | IC50 (PLK2; [1]) [nM] | IC50 (PLK1) [µM] | relative PLK2 activity of the enantiomers (PLK2) | IC50 (PLK2) [nM]
CC[C@@H]1C(=O)N(C)c2cnc(-n3ccnc3-c3ccc(F)cc3F)nc2N1C1CC(F)(F)C1 [Example 260, (R)-8-(3,3-difluorocyclobutyl)-2-(2-(2,4-difluorophenyl)-1H-imidazol-1-yl)-7-ethyl-5-methyl-7,8-dihydropteridin-6(5H)-one] | 10 to 50 | < 1000 | 1 to 10 |  | 
CC[C@]12CCCCN1c1nc(-n3ccnc3-c3cccc(F)c3F)ncc1N(C)C2=O [Example 261, (R)-2-(2-(2,3-difluorophenyl)-1H-imidazol-1-yl)-6a-ethyl-5-methyl-7,8,9,10-tetrahydro-5H-pyrido[2,1-h]pteridin-6(6aH)-one] | > 50 | 1000 to 10000 | > 50 |  | 
CC[C@@]12CCCCN1c1nc(-n3ccnc3-c3ccccc3)ncc1N(C)C2=O [Example 262, (S)-6a-ethyl-5-methyl-2-(2-phenyl-1H-imidazol-1-yl)-7,8,9,10-tetrahydro-5H-pyrido[2,1-h]pteridin-6(6aH)-one] | 1 to 10 | < 1000 | 1 to 10 | more active compound | 
CC[C@]12CCCCN1c1nc(-n3ccnc3-c3ccccc3)ncc1N(C)C2=O [Example 263, (R)-6a-ethyl-5-methyl-2-(2-phenyl-1H-imidazol-1-yl)-7,8,9,10-tetrahydro-5H-pyrido[2,1-h]pteridin-6(6aH)-one] | > 50 | 10000 to 50000 | > 50 |  | 
CC[C@@]12CCCCN1c1nc(-n3ccnc3-c3cccc(F)c3)ncc1N(C)C2=O [Example 264, (S)-6a-ethyl-2-(2-(3-fluorophenyl)-1H-imidazol-1-yl)-5-methyl-7,8,9,10-tetrahydro-5H-pyrido[2,1-h]pteridin-6(6aH)-one] | 10 to 50 | < 1000 | 1 to 10 | more active compound | 
CC[C@]12CCCCN1c1nc(-n3ccnc3-c3cccc(F)c3)ncc1N(C)C2=O [Example 265, (R)-6a-ethyl-2-(2-(3-fluorophenyl)-1H-imidazol-1-yl)-5-methyl-7,8,9,10-tetrahydro-5H-pyrido[2,1-h]pteridin-6(6aH)-one] | > 50 | 10000 to 50000 | > 50 |  | 
CC[C@@]12CCCCN1c1nc(-n3ccnc3-c3cc(F)c(F)c(F)c3)ncc1N(C)C2=O [Example 266, (S)-6a-ethyl-5-methyl-2-(2-(3,4,5-trifluorophenyl)-1H-imidazol-1-yl)-7,8,9,10-tetrahydro-5H-pyrido[2,1-h]pteridin-6(6aH)-one] | > 50 | < 1000 | > 50 | more active compound | 
CC[C@]12CCCCN1c1nc(-n3ccnc3-c3cc(F)c(F)c(F)c3)ncc1N(C)C2=O [Example 267, (R)-6a-ethyl-5-methyl-2-(2-(3,4,5-trifluorophenyl)-1H-imidazol-1-yl)-7,8,9,10-tetrahydro-5H-pyrido[2,1-h]pteridin-6(6aH)-one] | > 50 | > 50000 | > 50 |  | 
CC[C@@H]1C(=O)N(C)c2cnc(-n3ccnc3-c3ccc(F)cc3F)nc2N1C1CCOC1 (stereo partly drawn) [Example 268, (7R)-2-(2-(2,4-difluorophenyl)-1H-imidazol-1-yl)-7-ethyl-5-methyl-8-(tetrahydrofuran-3-yl)-7,8-dihydropteridin-6(5H)-one] | 1 to 10 | < 1000 | 1 to 10 |  | 
CC[C@@]12CCCCN1c1nc(-n3ccnc3-c3ccc(F)cc3F)ncc1N(C)C2=O [Example 269, (S)-2-(2-(2,4-difluorophenyl)-1H-imidazol-1-yl)-6a-ethyl-5-methyl-7,8,9,10-tetrahydro-5H-pyrido[2,1-h]pteridin-6(6aH)-one] | 10 to 50 | < 1000 | 10 to 50 | more active compound | 
CC[C@]12CCCCN1c1nc(-n3ccnc3-c3ccc(F)cc3F)ncc1N(C)C2=O [Example 270, (R)-2-(2-(2,4-difluorophenyl)-1H-imidazol-1-yl)-6a-ethyl-5-methyl-7,8,9,10-tetrahydro-5H-pyrido[2,1-h]pteridin-6(6aH)-one] | > 50 | 10000 to 50000 | > 50 |  | 
CC[C@@H]1C(=O)N(C)c2cnc(-n3ccnc3-c3ccc(F)cn3)nc2N1C1CCCC1 [Example 271, (R)-8-cyclopentyl-7-ethyl-2-(2-(5-fluoropyridin-2-yl)-1H-imidazol-1-yl)-5-methyl-7,8-dihydropteridin-6(5H)-one] | 1 to 10 | < 1000 | < 1 |  | 
CC[C@@]12CCCN1c1nc(-n3ccnc3-c3cccc(-c4cccnc4)c3)ncc1N(C)C2=O [Example 272, (S)-6a-ethyl-5-methyl-2-(2-(3-(pyridin-3-yl)phenyl)-1H-imidazol-1-yl)-6a,7,8,9-tetrahydropyrrolo[2,1-h]pteridin-6(5H)-one] | 10 to 50 | < 1000 | 10 to 50 |  | 
CC[C@@]12CCCN1c1nc(-n3ccnc3-c3cccc(-n4cncn4)c3)ncc1N(C)C2=O [Example 273, (S)-2-(2-(3-(1H-1,2,4-triazol-1-yl)phenyl)-1H-imidazol-1-yl)-6a-ethyl-5-methyl-6a,7,8,9-tetrahydropyrrolo[2,1-h]pteridin-6(5H)-one] | > 50 |  | 10 to 50 |  | < 1000
CC[C@@]12CCCN1c1nc(-n3ccnc3-c3cccc(-n4cccn4)c3)ncc1N(C)C2=O [Example 276, (S)-2-(2-(3-(1H-pyrazol-1-yl)phenyl)-1H-imidazol-1-yl)-6a-ethyl-5-methyl-6a,7,8,9-tetrahydropyrrolo[2,1-h]pteridin-6(5H)-one] | > 50 | < 1000 | 10 to 50 |  | 

Now from value to compound, other results behind:

IC50 (PLK3) [µM] | IC50 (PLK2; [1]) [nM] | IC50 (PLK1) [µM] | relative PLK2 activity of the enantiomers (PLK2) | Structure (SMILES) | IC50 (PLK2) [nM]
1 to 10 | < 1000 | 1 to 10 |  | CC[C@@H]1C(=O)N(C)c2cnc(-n3ccnc3-c3ccc(F)cc3F)nc2N1CCC(F)(F)F [Example 277, (R)-2-(2-(2,4-difluorophenyl)-1H-imidazol-1-yl)-7-ethyl-5-methyl-8-(3,3,3-trifluoropropyl)-7,8-dihydropteridin-6(5H)-one] | 
10 to 50 | < 1000 | > 50 |  | CC[C@@]12CCCN1c1nc(N3CCN=C3c3ccccc3)ncc1N(C)C2=O [Example 281, (S)-6a-ethyl-5-methyl-2-(2-phenyl-4,5-dihydro-1H-imidazol-1-yl)-6a,7,8,9-tetrahydropyrrolo[2,1-h]pteridin-6(5H)-one] | 
10 to 50 | < 1000 | 10 to 50 |  | CC[C@@H]1C(=O)N(C)c2cnc(-n3ccnc3-c3ccc(F)cc3Cl)nc2N1CCC(F)(F)F [Example 282, (R)-2-(2-(2-chloro-4-fluorophenyl)-1H-imidazol-1-yl)-7-ethyl-5-methyl-8-(3,3,3-trifluoropropyl)-7,8-dihydropteridin-6(5H)-one] | 
> 50 | > 50000 | > 50 |  | CCC1C(=O)N(C)c2cnc(-n3cc[n+](C)c3-c3ccccc3)nc2N1NC (stereo not drawn) [Example 284, 1-(7-ethyl-5-methyl-8-(methylamino)-6-oxo-5,6,7,8-tetrahydropteridin-2-yl)-3-methyl-2-phenyl-1H-imidazol-3-ium] | 
> 50 | 10000 to 50000 | > 50 |  | CC[C@@]12CCCN1c1nc(-n3ccnc3)ncc1N(C)C2=O [Example 285, (S)-6a-ethyl-2-(1H-imidazol-1-yl)-5-methyl-6a,7,8,9-tetrahydropyrrolo[2,1-h]pteridin-6(5H)-one] | 
> 50 | 1000 to 10000 | > 50 | more active compound | CC[C@@]12CCCCN1c1nc(-n3ccnc3)ncc1N(C)C2=O [Example 286, (S)-6a-ethyl-2-(1H-imidazol-1-yl)-5-methyl-7,8,9,10-tetrahydro-5H-pyrido[2,1-h]pteridin-6(6aH)-one] | 
> 50 | > 50000 | > 50 |  | CC[C@]12CCCCN1c1nc(-n3ccnc3)ncc1N(C)C2=O [Example 287, (R)-6a-ethyl-2-(1H-imidazol-1-yl)-5-methyl-7,8,9,10-tetrahydro-5H-pyrido[2,1-h]pteridin-6(6aH)-one] | 
1 to 10 | < 1000 | 1 to 10 |  | CC[C@@H]1C(=O)N(C)c2cnc(-n3ccnc3C3CC3)nc2N1C1CCCC1 [Example 288, (R)-8-cyclopentyl-2-(2-cyclopropyl-1H-imidazol-1-yl)-7-ethyl-5-methyl-7,8-dihydropteridin-6(5H)-one] | 
10 to 50 | < 1000 | 1 to 10 |  | CC(C)N1c2nc(-n3ccnc3-c3ccccc3)ncc2N(C)C(=O)C12CCC2 [Example 289, 8′-isopropyl-5′-methyl-2′-(2-phenyl-1H-imidazol-1-yl)-5′H-Spiro[cyclobutane-1,7′-pteridin]-6′(8′H)-one] | 
10 to 50 | < 1000 | 1 to 10 |  | CC[C@@H]1C(=O)N(C)c2cnc(-n3ccnc3Cl)nc2N1C1CCCC1 [Example 292, (R)-2-(2-chloro-1H-imidazol-1-yl)-8-cyclopentyl-7-ethyl-5-methyl-7,8-dihydropteridin-6(5H)-one] | 
10 to 50 | < 1000 | 1 to 10 | more active compound | CN1C(=O)[C@@H](CC(F)(F)F)N(CCC(F)(F)F)c2nc(-n3ccnc3-c3ccc(F)cc3F)ncc21 [Example 293, (R)-2-(2-(2,4-difluorophenyl)-1H-imidazol-1-yl)-5-methyl-7-(2,2,2-trifluoroethyl)-8-(3,3,3-trifluoropropyl)-7,8-dihydropteridin-6(5H)-one] | 
> 50 | 10000 to 50000 | > 50 |  | CN1C(=O)[C@H](CC(F)(F)F)N(CCC(F)(F)F)c2nc(-n3ccnc3-c3ccc(F)cc3F)ncc21 [Example 294, (S)-2-(2-(2,4-difluorophenyl)-1H-imidazol-1-yl)-5-methyl-7-(2,2,2-trifluoroethyl)-8-(3,3,3-trifluoropropyl)-7,8-dihydropteridin-6(5H)-one] | 
